Experiments:
Assay type in all cases: cell-based
[1] = test system: L. sativa cultivar Lentissima (LL) leaf explants; experiment: Direct shoot regeneration from leaf explants, cultivar Lentissima (LL)
Protocol: (§1) Seeds of L. sativa cultivars (New England Seed Co., Hartford, Conn.) were disinfected in a solution of 30% commercial bleach with 0.01%, Tween-20 for 5 min, rinsed five times in sterile water and placed on half strength Murashige and Skoog (MS; Murashige and Skoog, 1962) medium solidified with 0.6% Phytablend® (Caisson, N. Logan, Utah). After 21 days, fully expanded first leaves were dissected into 0.8 cm^2 and placed adaxial side on the medium. The culture medium was composed of MS basal salts, 3% sucrose and 0.6% Phytablend. Plant growth regulators were added to the medium as shown in table 1 and pH was adjusted to 5.8 prior autoclaving. Cultures were maintained at 26±2° C. at 40 μE m^2 s^−1 photon density; 16 hrs light/8 hrs dark.

[2] = test system: L. sativa cultivar Simpson Elite (LS) leaf explants; experiment: Direct shoot regeneration from leaf explants, cultivar Simpson Elite (LS)
Protocol: as §1

[3] = test system: L. sativa cultivar Romaine (LR) leaf explants; experiment: Direct shoot regeneration from leaf explants, cultivar Romaine (LR)
Protocol: as §1

[4] = test system: L. sativa cultivar Evola (LE) leaf explants; experiment: Direct shoot regeneration from leaf explants, cultivar Evola (LE)
Protocol: as §1

[5] = test system: L. sativa cultivar Great Lake (LG) leaf explants; experiment: Direct shoot regeneration from leaf explants, cultivar Great Lake (LG)
Protocol: as §1

Measured: EFF: Number of regenerated shoots/total explants

O=C(O)Cc1cccc2ccccc12 [NAA]
0: [1]; NAA 0.1 μg ml^−1 alone | [2]; NAA 0.1 μg ml^−1 alone | [3]; NAA 0.1 μg ml^−1 alone | [4]; NAA 0.1 μg ml^−1 alone | [5]; NAA 0.1 μg ml^−1 alone

c1ccc(CNc2ncnc3[nH]cnc23)cc1 [BAP]
0: [1]; BAP 0.1 μg ml^−1 alone | [2]; BAP 0.1 μg ml^−1 alone | [3]; BAP 0.1 μg ml^−1 alone | [4]; BAP 0.1 μg ml^−1 alone | [5]; BAP 0.1 μg ml^−1 alone

From patent publication US20100325756A1, “PLASTID TRANSFORMATION UTILIZING ENDOGENOUS REGULATORY ELEMENTS” (priority 2009, published 2010)
